Source: US11549142B2, “CETP inhibitors for therapeutic use” (Hoffmann-La Roche Inc., priority 2013, dated 2023)

Test system: patients recently hospitalized for an Acute Coronary Syndrome (ACS)
Test: dal-OUTCOMES phase III trial with pharmacogenomic (GWAS) analysis of cardiovascular events by ADCY9 genotype
Assay type: in vivo, human
Design: key to Predicted response: R: Responsive; PR: Partial Responsive; NR: Non Responsive
Protocol: The dalcetrapib mortality and morbidity trial (dal-OUTCOMES) was a double-blind, randomized, placebo-controlled, parallel group, multi-centre study in stable CHD patients recently hospitalized for acute coronary syndrome (ACS). The study was conducted to test the hypothesis that CETP inhibition will reduce the risk of recurrent cardiovascular events in patients with recent ACS by raising levels of HDL-C through CETP inhibition. Eligible patients entered a single-blind placebo run-in period of approximately 4 to 6 weeks to allow for patients to stabilize and for completion of planned revascularization procedures. At the end of the run-in period, eligible patients in stable condition were randomized in a 1:1 ratio to 600 mg of dalcetrapib or placebo on top of evidence-based medical care for ACS. Dalcetrapib is an inhibitor of cholesterol-ester transfer protein (CETP). […] The trial was interrupted in May 2012 by the DSMB on grounds of futility.
Dal-OUTCOMES trial (NC20971) was a double blind, randomized, placebo-controlled, parallel group, multi-center, phase III study to assess the safety and efficacy of the CETP inhibitor dalcetrapib in patients recently hospitalized for an Acute Coronary Syndrome (ACS). At time of the interim analysis the study included 15871 randomized patients, distributed over two treatment arms: placebo (7933 patients) and dalcetrapib (600 mg daily; 7938 patients). […] The dal-OUTCOMES study details can be found in G. Schwartz et al., N. Engl. J. Med. 367; 22, 2012.\
Whole genome analysis was performed in GLP-environment at the Beaulieu-Saucier Pharmacogenomics Centre. The Infinium® HumanOmni25Exome-8v1_A BeadChip (Illumina, San Diego, Calif.) including 2,567,845 genomic markers was used and processed according to the manufacturer's specifications. Approximately 200 ng of genomic DNA was whole-genome amplified, fragmented, and hybridized to locus-specific probes bound to the surface of each BeadChip. DNA was genotyped using a fluorescently labelled single base extension assay. BeadChips were scanned and analyzed using the Illumina® iScan Reader. Infinium® process controls were monitored and all results were within manufacturer's specifications. Scanned images were analyzed using Illumina's GenomeStudio® version 2011.1 with the GenTrain 2.0 cluster algorithm, using a No-Call threshold of 0.15, without manual cluster adjustment and using the manufacturer's Illumina® HumanOmni25Exome-8v1_A cluster file. […] Three genotyping files in PLINK format generated by GenomeStudio® were combined and transformed to binary PLINK format.
Genotyping completion rate for samples and SNPs was set to 98%. SNPs with genotyping plate bias (based on the 96 well plates used to dilute DNA samples) were flagged but not removed as the effect of genetic ancestry could not be excluded. Pairwise IBD was used to conduct close familial relationship checks. We flagged and removed all but one pair-member of related pairs and sample duplicates (IBS2*ratio>0.80) based on a selection of uncorrelated SNPs (r^2<0.1). The pairwise IBS matrix was used as a distance metric to identify cryptic relatedness among samples and sample outliers by multi-dimensional scaling (MDS). The first two MDS components of each subject were plotted including the genotypes of HapMap CEU, JPT-CHB, and YRI data (keeping only founder individuals). Outliers from the main Caucasian cluster were flagged and removed by k-nearest neighbour. (Supplementary FIG. 1) The scree plot and the cumulative explained variance were computed using the smartpca program of the EIGENSOFT suite (version 3.0). Options used were a numoutlieriter (maximum number of outlier removal iterations) of 0 (turned off) and altnormstyle (normalization formula) equal to NO. ^4 (Supplementary FIG. 2)
A statistical analysis plan was developed at the Beaulieu-Saucier Pharmacogenomics Centre and the final version approved prior to genotyping completion in October 2012. […]

## CCC(CC)CC1(C(=O)Nc2ccccc2SC(=O)C(C)C)CCCCC1 [dalcetrapib, thioisobutyric acid S-(2-{[1-(2-ethyl-butyl)-cyclohexanecarbonyl]-amino}-phenyl) ester]
rs8061182 genotype AA
  Predicted response: R
rs8061182 genotype AG
  HR for time to events, dalcetrapib treatment arm versus placebo arm: 0.99
  Predicted response: PR
rs8061182 genotype GG
  HR for time to events, dalcetrapib treatment arm versus placebo arm: 1.55
  Predicted response: NR
rs11647828 AG vs AA
  HR (95% CI) for time to events, dalcetrapib treatment arm only, genotype comparison: 0.74 (0.6, 0.92)
rs11647828 GG vs AA
  HR (95% CI) for time to events, dalcetrapib treatment arm only, genotype comparison: 0.46 (0.33, 0.63)
rs11647828 genotype AA
  HR for time to events, dalcetrapib treatment arm versus placebo arm: 1.33
  Predicted response: NR
rs11647828 genotype AG
  HR for time to events, dalcetrapib treatment arm versus placebo arm: 0.97
  Predicted response: PR
rs11647828 genotype GG
  HR for time to events, dalcetrapib treatment arm versus placebo arm: 0.61
  Predicted response: R
rs12595857 AG vs AA
  HR (95% CI) for time to events, dalcetrapib treatment arm only, genotype comparison: 0.7 (0.57, 0.87)
rs12595857 GG vs AA
  HR (95% CI) for time to events, dalcetrapib treatment arm only, genotype comparison: 0.45 (0.33, 0.62)
rs12595857 genotype AA
  HR for time to events, dalcetrapib treatment arm versus placebo arm: 1.27
  Predicted response: NR
rs12595857 genotype AG
  HR for time to events, dalcetrapib treatment arm versus placebo arm: 0.95
  Predicted response: PR
rs12595857 genotype GG
  HR for time to events, dalcetrapib treatment arm versus placebo arm: 0.7
  Predicted response: R
rs12935810 AA vs GG
  HR (95% CI) for time to events, dalcetrapib treatment arm only, genotype comparison: 1.87 (1.42, 2.48)
rs12935810 GA vs GG
  HR (95% CI) for time to events, dalcetrapib treatment arm only, genotype comparison: 1.3 (1.02, 1.65)
rs12935810 genotype AA
  HR for time to events, dalcetrapib treatment arm versus placebo arm: 1.28
  Predicted response: NR
rs12935810 genotype GA
  HR for time to events, dalcetrapib treatment arm versus placebo arm: 1.03
  Predicted response: NR
rs12935810 genotype GG
  HR for time to events, dalcetrapib treatment arm versus placebo arm: 0.79
  Predicted response: R
rs13337675 AG vs AA
  HR (95% CI) for time to events, dalcetrapib treatment arm only, genotype comparison: 0.84 (0.68, 1.03)
rs13337675 GG vs AA
  HR (95% CI) for time to events, dalcetrapib treatment arm only, genotype comparison: 0.7 (0.43, 1.14)
rs13337675 genotype AA
  HR for time to events, dalcetrapib treatment arm versus placebo arm: 1.07
  Predicted response: NR
rs13337675 genotype AG
  HR for time to events, dalcetrapib treatment arm versus placebo arm: 0.89
  Predicted response: PR
rs13337675 genotype GG
  HR for time to events, dalcetrapib treatment arm versus placebo arm: 1.03
  Predicted response: PR
rs17136707 AG vs AA
  HR (95% CI) for time to events, dalcetrapib treatment arm only, genotype comparison: 0.62 (0.47, 0.81)
rs17136707 GG vs AA
  HR (95% CI) for time to events, dalcetrapib treatment arm only, genotype comparison: 0.16 (0.02, 1.15)
rs17136707 genotype AA
  HR for time to events, dalcetrapib treatment arm versus placebo arm: 1.06
  Predicted response: NR
rs17136707 genotype AG
  HR for time to events, dalcetrapib treatment arm versus placebo arm: 0.8
  Predicted response: PR
rs17136707 genotype GG
  HR for time to events, dalcetrapib treatment arm versus placebo arm: 0.37
  Predicted response: R
rs74702385 AA vs GG
  HR (95% CI) for time to events, dalcetrapib treatment arm only, genotype comparison: 0.14 (0.02, 1)
rs74702385 GA vs GG
  HR (95% CI) for time to events, dalcetrapib treatment arm only, genotype comparison: 0.63 (0.48, 0.83)
rs74702385 genotype AA
  HR for time to events, dalcetrapib treatment arm versus placebo arm: 0.26
  Predicted response: R
rs74702385 genotype GA
  HR for time to events, dalcetrapib treatment arm versus placebo arm: 0.84
  Predicted response: R
rs74702385 genotype GG
  HR for time to events, dalcetrapib treatment arm versus placebo arm: 1.05
  Predicted response: NR
rs111590482 AG vs AA
  HR (95% CI) for time to events, dalcetrapib treatment arm only, genotype comparison: 0.64 (0.49, 0.84)
rs111590482 GG vs AA
  HR (95% CI) for time to events, dalcetrapib treatment arm only, genotype comparison: 0.15 (0.02, 1.1)
rs111590482 genotype AA
  HR for time to events, dalcetrapib treatment arm versus placebo arm: 1.04
  Predicted response: NR
rs111590482 genotype AG
  HR for time to events, dalcetrapib treatment arm versus placebo arm: 0.85
  Predicted response: R
rs111590482 genotype GG
  HR for time to events, dalcetrapib treatment arm versus placebo arm: 0.26
  Predicted response: R
